According to patent publication US20230365553A1, “COMPOUNDS AND COMPOSITIONS FOR TREATING CONDITIONS ASSOCIATED WITH STING ACTIVITY” (IFM Due, Inc., priority 2020, published 2023):

Each compound was assayed against T1, STING (Homo sapiens, UniProt Q86WV6, G230A/H232R/R293Q/R71H) (assay: STING reporter assay: luciferase reporter activity in THP1-Dual KO-IFNAR2 cells stimulated with 2′3′cGAMP). Conditions: 15 μM 2′3′cGAMP, 24h, read-out: hSTING EC50.
T1 construct: host or cells: THP1-Dual KO-IFNAR2 cells
Type: cell-based
Method in brief: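 THP1-Dual KO-IFNAR2 cells (2×10E6 cells/mL) were exposed to compounds at 0.0017-100 μM, then stimulated with 2′3′cGAMP (15 μM final) transfected via Lipofectamine 2000. After 24h at 37° C., secreted luciferase in supernatant was read by QUANTI-Luc luminescence; EC50 derived from concentration-response.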

T1 sequence (Q86WV6 whole entry R71H/G230A/H232R/R293Q): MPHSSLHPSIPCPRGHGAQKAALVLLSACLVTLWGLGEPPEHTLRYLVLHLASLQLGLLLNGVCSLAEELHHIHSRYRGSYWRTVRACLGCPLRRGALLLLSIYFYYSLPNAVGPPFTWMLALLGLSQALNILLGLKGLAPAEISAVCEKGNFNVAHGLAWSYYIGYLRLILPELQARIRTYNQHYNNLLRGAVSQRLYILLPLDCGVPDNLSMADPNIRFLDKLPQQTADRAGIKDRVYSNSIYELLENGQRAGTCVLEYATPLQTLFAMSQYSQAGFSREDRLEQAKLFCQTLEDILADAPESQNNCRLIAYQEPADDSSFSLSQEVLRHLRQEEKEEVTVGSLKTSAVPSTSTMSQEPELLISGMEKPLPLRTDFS

Structure (SMILES)	EC50 [nM]
CC(C)(C#N)C(=O)Nc1c[nH]c2ccc(-c3cnn(-c4ccc(C(F)(F)F)cc4)c3)cc12 [Compound 228, 2-cyano-2-methyl-N-(5-(1-(4-(trifluoromethyl)phenyl)-1H-pyrazol-4-yl)-1H-indol-3-yl)propanamide]	1000 to 5000
O=C(Nc1c[nH]c2ccc(-c3cnn(-c4ccc(C(F)(F)F)cc4)c3)cc12)C1(F)CCOCC1 [Compound 233, 4-fluoro-N-(5-(1-(4-(trifluoromethyl)phenyl)-1H-pyrazol-4-yl)-1H-indol-3-yl)tetrahydro-2H-pyran-4-carboxamide]	200 to 1000
N#CC1(C(=O)Nc2c[nH]c3ccc(-c4cnn(-c5ccc(C(F)(F)F)cc5)c4)cc23)CCOCC1 [Compound 220, 4-cyano-N-(5-(1-(4-(trifluoromethyl)phenyl)-1H-pyrazol-4-yl)-1H-indol-3-yl)tetrahydro-2H-pyran-4-carboxamide]	5000 to 100000
O=C(Nc1c[nH]c2ccc(-c3cnn(-c4ccc(C(F)(F)F)cc4)c3)cc12)c1ncc[nH]1 [Compound 260, N-(5-(1-(4-(trifluoromethyl)phenyl)-1H-pyrazol-4-yl)-1H-indol-3-yl)-1H-imidazole-2-carboxamide]	5000 to 100000
Cn1cc(C(=O)Nc2c[nH]c3ccc(-c4cnn(-c5ccc(C(F)(F)F)cc5)c4)cc23)nn1 [Compound 279, 1-methyl-N-(5-(1-(4-(trifluoromethyl)phenyl)-1H-pyrazol-4-yl)-1H-indol-3-yl)-1H-1,2,3-triazole-4-carboxamide]	200 to 1000
CCC(=O)Nc1c[nH]c2ccc(-c3ccc(CN4CCOCC4)s3)cc12 [Compound 135, N-(5-(5-(morpholinomethyl)thiophen-2-yl)-1H-indol-3-yl)propionamide]	5000 to 100000
CCC(O)C(=O)Nc1c[nH]c2ccc(-c3cnn(-c4ccc(C(F)(F)F)cc4)c3)cc12 (stereo not drawn) [Compound 197, 2-hydroxy-N-(5-(1-(4-(trifluoromethyl)phenyl)-1H-pyrazol-4-yl)-1H-indol-3-yl)butanamide]	200 to 1000
CCC(=O)Nc1c[nH]c2ccc(-c3ccnn3C)cc12 [Compound 142, N-(5-(1-methyl-1H-pyrazol-5-yl)-1H-indol-3-yl)propionamide]	1000 to 5000
O=C(Nc1c[nH]c2ccc(-c3cnn(-c4ccc(C(F)(F)F)cc4)c3)cc12)C1CCC(F)(F)CC1 [Compound 237, 4,4-difluoro-N-(5-(1-(4-(trifluoromethyl)phenyl)-1H-pyrazol-4-yl)-1H-indol-3-yl)cyclohexane-1-carboxamide]	200 to 1000
CCC(=O)Nc1c[nH]c2ccc(-c3cnn(-c4ccccc4)c3)cc12 [Compound 150, N-(5-(1-phenyl-1H-pyrazol-4-yl)-1H-indol-3-yl)propionamide]	200 to 1000
CN1CC(C(=O)Nc2c[nH]c3ccc(-c4cnn(-c5ccc(C(F)(F)F)cc5)c4)cc23)CC1=O (stereo not drawn) [Compound 249, 1-methyl-5-oxo-N-(5-(1-(4-(trifluoromethyl)phenyl)-1H-pyrazol-4-yl)-1H-indol-3-yl)pyrrolidine-3-carboxamide]	1000 to 5000
CC(c1cccc(C(F)(F)F)c1)n1cc(-c2ccc3[nH]cc(NC(=O)C4CCC4)c3c2)cn1 (stereo not drawn) [Compound 257, N-(5-(1-(1-(3-(trifluoromethyl)phenyl)ethyl)-1H-pyrazol-4-yl)-1H-indol-3-yl)cyclobutanecarboxamide]	200 to 1000
CN1CCC(C(=O)Nc2c[nH]c3ccc(-c4cnn(-c5ccc(C(F)(F)F)cc5)c4)cc23)CC1=O (stereo not drawn) [Compound 231, 1-methyl-2-oxo-N-(5-(1-(4-(trifluoromethyl)phenyl)-1H-pyrazol-4-yl)-1H-indol-3-yl)piperidine-4-carboxamide]	1000 to 5000
O=C(Nc1c[nH]c2ccc(-c3cnn(-c4ccc(C(F)(F)F)cc4)c3)cc12)c1cnco1 [Compound 263, N-(5-(1-(4-(trifluoromethyl)phenyl)-1H-pyrazol-4-yl)-1H-indol-3-yl)oxazole-5-carboxamide]	200 to 1000
CC(=O)Nc1c[nH]c2ccc(-c3cnn([C@H](C)c4cccc(C(F)(F)F)c4)c3)cc12 [Compound 176, (R)-N-(5-(1-(1-(3-(trifluoromethyl)phenyl)ethyl)-1H-pyrazol-4-yl)-1H-indol-3-yl)acetamide]	200 to 1000
O=C(Nc1c[nH]c2ccc(-c3cnn(-c4ccc(C(F)(F)F)cc4)c3)cc12)c1nccs1 [Compound 273, N-(5-(1-(4-(trifluoromethyl)phenyl)-1H-pyrazol-4-yl)-1H-indol-3-yl)thiazole-2-carboxamide]	1000 to 5000
CCC(=O)Nc1c[nH]c2ccc(-c3cnn(-c4cccc(CC)c4)c3)cc12 [Compound 128, N-(5-(1-(3-ethylphenyl)-1H-pyrazol-4-yl)-1H-indol-3-yl)propionamide]	200 to 1000
CCC(=O)Nc1c[nH]c2ccc(N3CCN(c4ccccc4)CC3)cc12 [Compound 131, N-(5-(4-phenylpiperazin-1-yl)-1H-indol-3-yl)propionamide]	5000 to 100000

Structure (SMILES)	EC50 [nM]
CC(=O)Nc1c[nH]c2ccc(-c3cnn(-c4ccc(C(F)(F)F)cc4)c3)cc12 [Compound 245, N-(5-(1-(4-(trifluoromethyl)phenyl)-1H-pyrazol-4-yl)-1H-indol-3-yl)acetamide]	40 to 200
O=C(Nc1c[nH]c2ccc(-c3cnn(-c4ccc(C5CC(F)(F)C5)cc4)c3)cc12)C1CCC1 [Compound 259, N-(5-(1-(4-(3,3-difluorocyclobutyl)phenyl)-1H-pyrazol-4-yl)-1H-indol-3-yl)cyclobutanecarboxamide]	200 to 1000
CCc1ccc(-n2cc(-c3ccc4[nH]cc(NC(=O)CN(C)C)c4c3)cn2)cc1 [Compound 125, 2-(dimethylamino)-N-(5-(1-(4-ethylphenyl)-1H-pyrazol-4-yl)-1H-indol-3-yl)acetamide]	5000 to 100000
O=C(Nc1c[nH]c2ccc(-c3cnn(-c4ccc(C(F)(F)F)cc4)c3)cc12)C1CCC(CO)CC1 (stereo not drawn) [Compound 188, 4-(hydroxymethyl)-N-(5-(1-(4-(trifluoromethyl)phenyl)-1H-pyrazol-4-yl)-1H-indol-3-yl)cyclohexane-1-carboxamide]	1000 to 5000
O=C(Nc1c[nH]c2ccc(-c3cnn(-c4ccc(C(F)(F)F)cc4)c3)cc12)c1cn[nH]c1 [Compound 266, N-(5-(1-(4-(trifluoromethyl)phenyl)-1H-pyrazol-4-yl)-1H-indol-3-yl)-1H-pyrazole-4-carboxamide]	200 to 1000
Cc1nc(C(=O)Nc2c[nH]c3ccc(-c4cnn(-c5ccc(C(F)(F)F)cc5)c4)cc23)co1 [Compound 270, 2-methyl-N-(5-(1-(4-(trifluoromethyl)phenyl)-1H-pyrazol-4-yl)-1H-indol-3-yl)oxazole-4-carboxamide]	200 to 1000
CCC(=O)Nc1c[nH]c2ccc(-c3cnn(-c4ccc(C#N)cc4)c3)cc12 [Compound 101, N-(5-(1-(4-cyanophenyl)-1H-pyrazol-4-yl)-1H-indol-3-yl)propionamide]	200 to 1000
CCC(=O)Nc1c[nH]c2ccc(-c3cnn(-c4cccc(Cl)c4)c3)cc12 [Compound 149, N-(5-(1-(3-chlorophenyl)-1H-pyrazol-4-yl)-1H-indol-3-yl)propionamide]	200 to 1000
CC(=O)Nc1c[nH]c2ccc(-c3cnn(C(C)c4cccc(C(F)(F)F)c4)c3)cc12 (stereo not drawn) [Compound 179, N-(5-(1-(1-(3-(trifluoromethyl)phenyl)ethyl)-1H-pyrazol-4-yl)-1H-indol-3-yl)acetamide]	200 to 1000
CCc1ccc(-n2cc(-c3ccc4[nH]cc(NC(=O)/C=C/COC)c4c3)cn2)cc1 [Compound 130, (E)-N-(5-(1-(4-ethylphenyl)-1H-pyrazol-4-yl)-1H-indol-3-yl)-4-methoxybut-2-enamide]	200 to 1000
Cc1cc(C(=O)Nc2c[nH]c3ccc(-c4cnn(-c5ccc(C(F)(F)F)cc5)c4)cc23)no1 [Compound 274, 5-methyl-N-(5-(1-(4-(trifluoromethyl)phenyl)-1H-pyrazol-4-yl)-1H-indol-3-yl)isoxazole-3-carboxamide]	200 to 1000
CCc1ccc(-n2cc(-c3ccc4[nH]cc(NC(C)=O)c4c3)cn2)cc1 [Compound 134, N-(5-(1-(4-ethylphenyl)-1H-pyrazol-4-yl)-1H-indol-3-yl)acetamide]	40 to 200
O=C(Nc1c[nH]c2ccc(-c3cnn(Cc4ccc(C(F)(F)F)nc4)c3)cc12)C1CCC1 [Compound 191, N-(5-(1-((6-(trifluoromethyl)pyridin-3-yl)methyl)-1H-pyrazol-4-yl)-1H-indol-3-yl)cyclobutanecarboxamide]	200 to 1000
CCC(=O)Nc1c[nH]c2ccc(-c3cnn(Cc4cccc(C(F)(F)F)c4)c3)cc12 [Compound 127, N-(5-(1-(3-(trifluoromethyl)benzyl)-1H-pyrazol-4-yl)-1H-indol-3-yl)propionamide]	200 to 1000
O=C(Nc1c[nH]c2ccc(-c3cnn(-c4ccc(C(F)(F)F)cc4)c3)cc12)c1cnn[nH]1 [Compound 261, N-(5-(1-(4-(trifluoromethyl)phenyl)-1H-pyrazol-4-yl)-1H-indol-3-yl)-1H-1,2,3-triazole-5-carboxamide]	1000 to 5000
CC(=O)Nc1c[nH]c2ccc(-c3cnn(-c4ccc(F)c(F)c4)c3)cc12 [Compound 170, N-(5-(1-(3,4-difluorophenyl)-1H-pyrazol-4-yl)-1H-indol-3-yl)acetamide]	1000 to 5000
CC1(C(=O)Nc2c[nH]c3ccc(-c4cnn(-c5ccc(C(F)(F)F)cc5)c4)cc23)CCOCC1 [Compound 222, 4-methyl-N-(5-(1-(4-(trifluoromethyl)phenyl)-1H-pyrazol-4-yl)-1H-indol-3-yl)tetrahydro-2H-pyran-4-carboxamide]	1000 to 5000
O=C(Nc1c[nH]c2ccc(-c3cnn(-c4ccc(C(F)(F)F)cc4)c3)cc12)C1(O)CCCC1 [Compound 186, 1-hydroxy-N-(5-(1-(4-(trifluoromethyl)phenyl)-1H-pyrazol-4-yl)-1H-indol-3-yl)cyclopentane-1-carboxamide]	200 to 1000
